The values below come from ChEMBL document CHEMBL1141816, “Massarinolins A-C: new bioactive sesquiterpenoids from the aquatic fungus massarina tunicata” (1999).

One assay concerns Candida albicans. In words: Antifungal activity against Candida albicans ATCC 14053 at 200 ug/disk by standard disk assay. It counts as functional, organism-based.
Another assay deals with Bacillus subtilis. In words: Antibacterial activity against Bacillus subtilis ATCC 6051 at 200 ug/disk by standard disk assay. It counts as functional. Particulars: for zone of inhibition at 200 µg/disc: read-out: IZ.
The subject of the next assay is Staphylococcus aureus. In words: Antibacterial activity against Staphylococcus aureus ATCC 29213 at 200 ug/disk by standard disk assay. The class given is functional.

The source made the active and inactive calls. The rule behind the calls is not given here.

In the case of `C=C1CC[C@H]2C[C@@H]1[C@]2(CO)C[C@H](O)/C=C(\C)C(=O)O`, the result in the assay with Candida albicans, with Bacillus subtilis and with Staphylococcus aureus was inactive.
On to `C=C1CC[C@H]2C[C@@H]1[C@@]21CO[C@]2(C=C(C)C(=O)O2)[C@H]1O` [MASSARINOLIN A], for which the outcome in the assay on Candida albicans was inactive. Also, the results for the zone of inhibition at 200 µg/disc in the assay with Bacillus subtilis and in the assay on Staphylococcus aureus (read-out: IZ) were 17 mm and 10 mm, respectively.
Regarding `C/C(=C\[C@@H](O)C[C@@]12CO[C@]3(C)CC[C@H]1C[C@H]23)C(=O)O` [MASSARINOLIN B], the outcome in the assay on Candida albicans was inactive. In addition, the zone of inhibition at 200 µg/disc in the assay on Bacillus subtilis is 8 mm.
